Measurements as given in US20040097577A1 (priority 2001, published 2004).

Key:
[1] = test system: patients in the age ranging from 6 to 14 years; experiment: pilot study, effect of melatonin on sleep latency (sleep logs, CGI), melatonin versus placebo; assay type: in vivo, human
Experimental: In a pilot study, nine patients in the age ranging from 6 to 14 years were run through a protocol to determine feasibility. A sample of four sleep logs, illustrating response at each of the protocol was determined. […] Patients tolerated the protocol, and parents were able to reliably complete the sleep logs. Some parents had to be trained to do so over several visits. Parents whose children fell asleep extremely late, could not tolerate staying up to find out when they actually fell asleep, and had to be excluded.

children = settings: cited from earlier work
[2] = test system: children, most of whom were neurologically multiply disabled; settings: 2 to 10 mg of oral melatonin at bedtime; cited from earlier work

SMILES: COc1ccc2[nH]cc(CCNC(C)=O)c2c1 [melatonin, N-acetyl-5-methoxytryptamine]
- CGI data ([1]; melatonin versus placebo): not significant
- difference in response between the melatonin and placebo ([1]; nine patients, sleep logs, with sleep hygiene): significant difference in response (p=0.03)
- adverse effects on long-term use (children; children who received melatonin for several years): without adverse effects
- average onset of sleep after melatonin administration (children; children, 2.5 to 7.5 mg PO once daily before expected bedtime): ≤ 1 h
- adverse side-effects [2]: no adverse side-effects
- health, behavioural and social benefits [2]: significant
